According to ChEMBL document CHEMBL1130632, “Polycyclic aromatic compounds as anticancer agents: synthesis and biological evaluation of some chrysene derivatives” (Bioorg Med Chem Lett, 1998):
In brackets after ≈: the same amount, converted by molar mass.

What was measured:
Format in all cases: functional, cell-based
HT-29 = experiment: Compound was evaluated for the growth inhibition of HT-29 colon cell line.; conditions: Homo sapiens
SK-MEL-2 = experiment: Compound was evaluated for the growth inhibition of […] melanoma cell line.; conditions: Homo sapiens
P388 = experiment: Compound was evaluated for the growth inhibition of p388/0 leukemia cell line.; conditions: Mus musculus
BRO melanoma cell line = experiment: Compound was evaluated for the growth inhibition of BRO melanoma cell line.; conditions: Homo sapiens
MCF7 = experiment: Compound was evaluated for the growth inhibition of MCF-7 breast cell line.; conditions: Homo sapiens

IC50 (HT-29) [µg/mL]	IC50 (SK-MEL-2) [µg/mL]	IC50 (P388) [µg/mL]	IC50 (BRO melanoma cell line) [µg/mL]	IC50 (MCF7) [µg/mL]	SMILES
0.5 (≈ 0.92 µM)	0.1 (≈ 0.184 µM)	0.8 (≈ 1.47 µM)	0.2 (≈ 0.368 µM)	0.4 (≈ 0.736 µM)	COc1cccc2c1C(=O)c1c(O)c3c(c(O)c1C2=O)C[C@@](O)(C(=O)CO)C[C@@H]3O[C@H]1C[C@H](N)[C@H](O)[C@H](C)O1 [DOXORUBICIN]
2.3 (≈ 6.01 µM)	3.8 (≈ 9.93 µM)	2.2 (≈ 5.75 µM)	4.5 (≈ 11.8 µM)	3 (≈ 7.84 µM)	c1ccc2c(c1)ccc1c3ccc(NCCCCN4CCCCC4)cc3ccc21
6.6 (≈ 15.5 µM)	10 (≈ 23.5 µM)	9.8 (≈ 23 µM)	11.8 (≈ 27.7 µM)	11.2 (≈ 26.3 µM)	CN1CCN(C(=O)CCC(=O)Nc2cc3c4ccccc4ccc3c3ccccc23)CC1
4.8 (≈ 11.3 µM)	9.2 (≈ 21.6 µM)	7.9 (≈ 18.6 µM)	9.5 (≈ 22.3 µM)	9.8 (≈ 23 µM)	CN1CCN(C(=O)CCC(=O)Nc2ccc3c(ccc4c5ccccc5ccc34)c2)CC1
9.3 (≈ 23.4 µM)	8.7 (≈ 21.9 µM)	4.7 (≈ 11.8 µM)	8.8 (≈ 22.1 µM)	12.1 (≈ 30.4 µM)	CN1CCN(CCCCNc2ccc3c(ccc4c5ccccc5ccc34)c2)CC1
10.1 (≈ 24.6 µM)	15.9 (≈ 38.7 µM)	12.2 (≈ 29.7 µM)	15 (≈ 36.5 µM)	11.5 (≈ 28 µM)	O=C(CCC(=O)N1CCCCC1)Nc1cc2c3ccccc3ccc2c2ccccc12
8.5 (≈ 20.7 µM)	13.3 (≈ 32.4 µM)	10.5 (≈ 25.6 µM)	17.3 (≈ 42.1 µM)	10.2 (≈ 24.8 µM)	O=C(CCC(=O)N1CCCCC1)Nc1ccc2c(ccc3c4ccccc4ccc23)c1
